Test results published in ChEMBL document CHEMBL4806958, “Anti-cancer/anti-fibrosis compounds” (2020).

Tests used:
[1] = biological target: Casein kinase II subunit alpha (Homo sapiens, UniProt P68400); assay: Inhibition of CSNK2A1(unknown origin) using Ser/Thr 11 as substrate incubated for 60 mins in presence of ATP by Z'-LYTE assay
[2] = biological target: Homeodomain-interacting protein kinase 2 (Homo sapiens, UniProt Q9H2X6); assay: Inhibition of HIPK2 (unknown origin) using Ser/Thr 09 as substrate incubated for 60 mins in presence of ATP by Z'-Lyte assay
Chain of Homeodomain-interacting protein kinase 2 (Q9H2X6 whole entry): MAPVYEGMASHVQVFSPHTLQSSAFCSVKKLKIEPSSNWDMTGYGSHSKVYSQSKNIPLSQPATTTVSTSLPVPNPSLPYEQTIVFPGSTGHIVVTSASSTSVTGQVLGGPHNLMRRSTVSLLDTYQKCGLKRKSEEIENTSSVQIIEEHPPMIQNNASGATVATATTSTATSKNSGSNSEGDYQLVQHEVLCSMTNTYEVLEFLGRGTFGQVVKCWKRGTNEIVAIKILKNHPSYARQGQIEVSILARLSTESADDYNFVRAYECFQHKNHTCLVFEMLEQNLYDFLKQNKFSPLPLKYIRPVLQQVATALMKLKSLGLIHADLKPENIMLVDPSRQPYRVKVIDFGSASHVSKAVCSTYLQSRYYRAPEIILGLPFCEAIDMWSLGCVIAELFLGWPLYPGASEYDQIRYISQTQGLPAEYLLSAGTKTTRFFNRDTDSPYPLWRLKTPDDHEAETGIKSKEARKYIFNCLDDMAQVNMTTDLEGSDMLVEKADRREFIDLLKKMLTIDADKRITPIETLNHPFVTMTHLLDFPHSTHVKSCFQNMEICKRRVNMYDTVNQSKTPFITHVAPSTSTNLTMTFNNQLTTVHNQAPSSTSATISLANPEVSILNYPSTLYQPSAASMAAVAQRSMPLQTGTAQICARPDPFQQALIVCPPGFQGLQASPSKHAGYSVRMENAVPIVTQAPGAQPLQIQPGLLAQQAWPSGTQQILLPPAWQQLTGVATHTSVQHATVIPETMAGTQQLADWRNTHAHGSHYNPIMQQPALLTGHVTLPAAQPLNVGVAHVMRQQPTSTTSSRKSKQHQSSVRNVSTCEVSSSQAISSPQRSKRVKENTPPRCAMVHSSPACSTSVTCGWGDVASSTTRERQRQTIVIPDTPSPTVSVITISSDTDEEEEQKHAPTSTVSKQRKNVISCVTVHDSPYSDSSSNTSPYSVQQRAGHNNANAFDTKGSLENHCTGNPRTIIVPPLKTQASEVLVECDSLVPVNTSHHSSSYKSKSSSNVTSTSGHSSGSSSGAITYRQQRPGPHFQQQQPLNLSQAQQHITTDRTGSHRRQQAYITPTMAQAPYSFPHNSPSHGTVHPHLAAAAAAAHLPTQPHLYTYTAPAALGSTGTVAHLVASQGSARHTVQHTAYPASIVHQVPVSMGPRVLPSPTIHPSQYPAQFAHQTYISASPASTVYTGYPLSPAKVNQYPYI

Chain of Casein kinase II subunit alpha (P68400 whole entry): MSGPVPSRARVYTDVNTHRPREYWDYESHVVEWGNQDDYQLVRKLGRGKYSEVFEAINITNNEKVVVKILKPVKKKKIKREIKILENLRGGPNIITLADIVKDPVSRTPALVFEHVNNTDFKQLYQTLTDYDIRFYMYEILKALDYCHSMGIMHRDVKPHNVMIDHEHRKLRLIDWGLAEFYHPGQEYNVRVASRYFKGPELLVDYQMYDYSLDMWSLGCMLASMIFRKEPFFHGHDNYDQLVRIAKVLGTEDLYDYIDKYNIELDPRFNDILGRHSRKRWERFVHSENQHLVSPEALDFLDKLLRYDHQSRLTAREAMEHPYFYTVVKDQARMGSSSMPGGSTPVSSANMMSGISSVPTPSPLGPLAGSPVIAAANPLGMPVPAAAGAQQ

IC50 [1] [nM] | IC50 [2] [nM] | Structure (SMILES)
< 300 | – | O=C(O)c1ccc2c(c1)cc(C1CC1)c1ccncc12
– | > 5000 | O=C(O)c1ccc2c(c1)cc(Br)c1cc(Cl)ncc12
< 300 | – | O=C(O)c1ccc2c(c1)cc(N1CCCCC1)c1ccncc12
< 300 | < 300 | O=C(O)c1ccc2c(c1)cc(Br)c1ccncc12
< 300 | – | O=C(O)c1ccc2c(c1)cc(Br)c1ccnc(Cl)c12
< 300 | – | O=C(O)c1ccc2c(c1)cc(NC1CCCC1)c1ccncc12
< 300 | – | CC(C)Nc1cc2cc(C(=O)O)ccc2c2cnccc12
< 300 | < 300 | O=C(O)c1ccc2c(c1)cc(NC1CC1)c1ccncc12

Continued, compound first:

Structure (SMILES) | IC50 [1] [nM] | IC50 [2] [nM]
CCC(C)Nc1cc2cc(C(=O)O)ccc2c2cnccc12 (stereo unspecified) | < 300 | –
O=C(O)c1ccc2c(c1)cc(Nc1cccc(Cl)c1)c1ccncc12 | < 300 | –
O=C(O)c1ccc2c(c1)cc(NC1CCC1)c1ccncc12 | < 300 | –
Cc1cc2cc(C(=O)O)ccc2c2cnccc12 | < 300 | –
Nc1ccc(-c2cc3cc(C(=O)O)ccc3c3cnccc23)cn1 | < 300 | –
O=C(O)c1ccc2c(c1)cc(-c1ccncc1)c1ccncc12 | < 300 | –
